Assay results as given in patent US20250195604A1, “Compositions and Methods of Treatment of Certain Vasculitis Syndromes” (Soligenix, Inc., priority 2023, published 2025).
Entries after “also recorded” stand apart in the source; their conditions may differ. Read-outs that look alike come from different tables or passages of the source. No end group written: not given here.

Tests used:
[1] = test system: whole blood stimulated with LPS (E. coli); assay: Phase 1 study: in vitro LPS stimulation of whole blood from SAD and MAD volunteers, cytokine and chemokine analytes; assay type: in vivo, human
Method: Solid lines indicate the mean response, dashed lines the respective 95% CI for the population.
(§1) In a Phase 1 study, patients received single ascending doses (0.15 to 8.0 mg/kg) and multiple ascending doses (daily 7× 0.5 to 6.5 mg/kg) of dusquetide as 4-minutes IV infusions. To determine the pharmacodynamic profile of dusquetide, cytokine and chemokine analytes were quantified after 4 h of in vitro stimulation of whole blood with LPS (E. coli) to determine dusquetide effects on dose, gender and any extended impact on PD.
The following panel of cytokine and chemokine analytes were quantified: IL-la; IL-1B; IL-6; IL-1ra; TNFα; Tumor Necrosis Factor-Receptor II (TNF RII); MCP-1; Macrophage Inflammatory Protein-1alpha (MIP-la; also known as CCL3); MIP-1B (also known as CCL4) and RANTES (also known as CCL5). The dusquetide-treated population (N=56) in the combined SAD and MAD data set was subdivided into “low dose” (N=26, 0.15-2.0 mg/kg) and “high dose” (N=30; 3.0-8.0 mg/kg) groups and these were compared to the combined placebo group (N=22).

[2] = Phase 1 studies, safety of IV dusquetide; assay type: in vivo, human; conditions: dose levels of 0.15 to 8.0 mg/kg
Method: The dosage form of dusquetide is an aqueous, aseptically processed, sterile solution for injection. Each vial contains 5 mL of a 60 mg/mL solution (300 mg of dusquetide). Dusquetide is formulated in water for injection and pH adjusted to a target value of 6.0. The preferred formulation of the present invention contains no excipients and has an osmolality of ˜300 mOsm/kg. Dusquetide drug product is diluted in sterile saline to the appropriate concentration for injection, determined on a mg/kg basis by the recipient's weight at a dose level of 1.5 mg/kg. Diluted dusquetide is administered as an intravenous (IV) infusion in 25 mL over 4 minutes, once every third day.
as §1

[3] = test system: severe oral mucositis (SOM); assay: Phase 2 study of oral mucositis in head and neck cancer patients receiving radiation and cisplatin (IDR-OM-01); assay type: in vivo, human
Method: The Phase 2 study was designed to examine the effects of dusquetide on ameliorating OM in patients with oral or oropharyngeal squamous cell carcinoma who were undergoing therapy with fractionated radiation (2.0-2.2 Gy per day for a total planned cumulative dose of 55-75 Gy) and chemotherapy with cisplatin given either as “low dose” (30-40 mg/m2 every week) or as “high dose” or “aggressive” cisplatin (80-100 mg/m2 given every 3 weeks). Dusquetide was evaluated in this dose ranging study at doses of 1.5, 3.0 (3 patients only) and 6.0 mg/kg.

[4] = test system: severe oral mucositis (SOM); assay: Phase 3 study IDR-OM-02, oral mucositis in head and neck cancer patients receiving chemoradiation; assay type: in vivo, human; conditions: 1.5 mg/kg twice per week
Method: Subsequently a Phase 3 international study (Study IDR-OM-02) evaluated dusquetide in the treatment of […] in head and neck cancer patients receiving concomitant chemoradiation therapy (at least 55 Gy radiation therapy and 80 to 100 mg/m2 cisplatin received every third week). 266 patients were enrolled in the randomized, blinded and placebo-controlled study assessing treatment with 1.5 mg/kg dusquetide administered twice per week as a 4-minute infusion.

[5] = test system: mouse macrophage-like cell line; assay: Signalling after dusquetide exposure in mouse macrophage-like cell line; assay type: cell-based
[6] = test system: human epithelial cell lines; assay: Signalling after dusquetide exposure in human epithelial cell lines; assay type: cell-based
[7] = test system: NFKB; assay: NFKB activation on dusquetide binding to p62; assay type: cell-based
[8] = test system: mouse blood cells challenged with LPS; assay: Ex vivo LPS challenge of mouse blood cells after in vivo dusquetide
Text: (§2) The innate immune system involves numerous cell types distributed throughout the body in both circulating and tissue-resident compartments. The interaction of all the cells defines the aggregate response. […] Nevertheless, cellular and molecular studies with individual cell types or sub-groups of cell types are informative but must be interpreted cautiously when used to predict the behavior of the system in vivo. […] By contrast, when dusquetide exposure of either mouse or human blood occurs in vitro, although the TNFα response to LPS challenge is unaffected, the MCP-1 response is reduced. The responses of mouse and human primary blood cells to dusquetide in this in vitro setting are quantitatively and qualitatively similar.
(§3) Further studies have explored the ability of blood cells to respond to a pathogen (or pathogen-like) challenge in vitro after prior exposure to dusquetide in vivo—an “ex vivo” test system that provides information about the “responsiveness” of the innate defense system. The responsiveness of mouse and NHP innate defense systems have been characterized by measuring changes in cytokine and chemokine production following ex vivo challenge of blood cells with LPS. In general, no evidence of broad-spectrum activation was observed.

[9] = test system: mouse blood challenged with LPS; assay: LPS challenge of mouse blood exposed to dusquetide in vitro; assay type: cell-based; conditions: dusquetide exposure in vitro
Text: as §2

[10] = test system: human blood challenged with LPS; assay: LPS challenge of human blood exposed to dusquetide in vitro; assay type: cell-based; conditions: dusquetide exposure in vitro
Text: as §2

[11] = test system: fractionated radiation-induced mucositis; assay: Hamster model of fractionated radiation-induced mucositis; assay type: in vivo
Text: Dusquetide has been extensively studied in animal models of both mucosal damage (where damage associated molecular patterns (DAMPS)) trigger the innate defense system) and bacterial infection (where pathogen associated molecular patterns (PAMPS)) trigger the innate defense system).

[12] = test system: dextran sulphate sodium (DSS)-induced colitis; parameters: species or system male C57BL/6 mice; conditions: mouse, in vivo
[13] = test system: MRSA; conditions: mouse, in vivo
[14] = test system: MRSA; assay: MRSA infection in athymic nude mice; assay type: in vivo
[15] = test system: bacterial challenge; assay: Bacterial challenge in mice rendered leukopenic by cyclophosphamide; assay type: in vivo, mouse
[16] = test system: cytokine or chemokine levels; assay: Circulating cytokine and chemokine levels in normal mice; assay type: in vivo, mouse
[17] = test system: cytokine and chemokine levels; assay: Circulating cytokine and chemokine levels in NHPs; assay type: in vivo, NHP
[18] = test system: NHP blood cultured with LPS; assay: Ex vivo LPS challenge of NHP blood after in vivo dusquetide; conditions: for IL-1β response to LPS / MIP-la response to LPS: NHP
Text: as §3

[19] = test system: severe oral mucositis (SOM); conditions: cited from earlier work; for overall infection rate: Kudrimoti 2016
[20] = molecular target: sequestosome-1, also known as p62 (Homo sapiens, UniProt Q13501); conditions: Yu 2009, Zhang 2022; cited from earlier work
Chain of sequestosome-1, also known as p62 (Q13501 whole entry): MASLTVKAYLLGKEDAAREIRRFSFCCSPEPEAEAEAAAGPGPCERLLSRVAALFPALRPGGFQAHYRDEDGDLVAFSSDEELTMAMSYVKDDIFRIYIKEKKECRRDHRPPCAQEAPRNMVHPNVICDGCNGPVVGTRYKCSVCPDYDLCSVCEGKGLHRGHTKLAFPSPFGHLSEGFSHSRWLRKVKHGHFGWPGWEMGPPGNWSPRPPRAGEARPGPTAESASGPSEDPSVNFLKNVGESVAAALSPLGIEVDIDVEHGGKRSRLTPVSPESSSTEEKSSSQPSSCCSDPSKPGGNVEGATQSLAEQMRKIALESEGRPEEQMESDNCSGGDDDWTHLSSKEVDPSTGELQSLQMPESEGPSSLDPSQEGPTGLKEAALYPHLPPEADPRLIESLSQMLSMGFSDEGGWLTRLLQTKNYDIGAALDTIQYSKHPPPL

[21] = molecular target: p62 (Homo sapiens, UniProt Q13501); conditions: Yu 2009; cited from earlier work
Chain of p62 (Q13501 whole entry): as above

[22] = test system: mouse primary cell cultures; conditions: North 2016; cited from earlier work
[23] = test system: nonhuman primate (NHP) primary cell cultures; conditions: North 2016; cited from earlier work
[24] = test system: human primary cell cultures; conditions: North 2016; cited from earlier work
[25] = test system: mouse macrophage-like cell line; conditions: medium of dusquetide-incubated splenocytes, North 2016; cited from earlier work
[26] = test system: mucositis (oral and lower GI tract); conditions: mice after chemotherapy, Kudrimoti 2016; cited from earlier work
[27] = test system: dextran sulphate sodium (DSS)-induced colitis; conditions: Kudrimoti 2016, levels comparative to maximal steroid use; cited from earlier work
[28] = test system: MRSA, S. aureus, K. pneumoniae, B. pseudomallei; conditions: mouse, in vivo; cited from earlier work
[29] = test system: response to lipopolysaccharide; conditions: North 2016, Yu 2009; cited from earlier work
[30] = test system: MRSA; assay: IV MRSA challenge model (bacteremia) in mice
[31] = low dose group (0.15-2.0 mg/kg)
[32] = low dose group (0.15-2.0 mg/kg), 1 h timepoint, vs placebo or high dose
[33] = 1.5 mg/kg, all patients, vs placebo
[34] = 1.5 mg/kg, every 3rd week cisplatin subpopulation
[35] = 1.5 mg/kg, every 3rd week cisplatin subpopulation, vs placebo
[36] = dusquetide in vivo before culture
[37] = hamster, fractionated radiation
[38] = longer term, 12-24 h after administration
[39] = short term, 1 to 4 h after administration, modest

RIVPA-NH2 [dusquetide, L-arginyl-L-isoleucyl-L-valyl-L-prolyl-L-alanine-amide]
measured cytokine and chemokine analytes ([1]; high dose group (3.0-8.0 mg/kg)): very similar to the placebo group
ratio IL-1ra/IL-1B [1, 31]: more distinct increased responses
ratio TNF RII/TNFα [1, 31]: more distinct increased responses
IL-1B after LPS stimulation of whole blood [1, 32]: slightly decreased
IL-1ra after LPS stimulation of whole blood [1, 32]: slightly increased
IL-1x after LPS stimulation of whole blood [1, 32]: slightly decreased
TNFα after LPS stimulation of whole blood [1, 32]: slightly decreased
safety of administration [2]: safely administered
median duration of SOM ([3]; 1.5 mg/kg, all patients): 9 days
reduction in median duration of SOM vs placebo ([3]; 1.5 mg/kg, all patients): 50%
reduction in median AUC for the WHO Grade-time calculation [3, 33]: 39%
reduction in the incidence of SOM [3, 33]: 7%
decrease in median duration of SOM vs placebo [3, 34]: 67%
median duration of SOM [3, 34]: 10 days
onset of disease [3, 34]: no impact
reduction in median AUC WHO Grade-time calculation [3, 35]: 51%
relative reduction in incidence of SOM [3, 35]: 18%
AUC (WHO Grade-time) ([3]; 1.5 mg/kg, weekly cisplatin): 10.5
decrease in median duration of SOM vs placebo ([3]; 1.5 mg/kg, weekly cisplatin): 50%
median duration of SOM ([3]; 1.5 mg/kg, weekly cisplatin): 5 days
reduction in the AUC vs placebo ([3]; 1.5 mg/kg, weekly cisplatin): 55%
most efficacious dose ([3]; dose ranging 1.5, 3.0 and 6.0 mg/kg): 1.5 mg/kg
response in duration of SOM ([4]; intent to treat (ITT) population): not
response in duration of SOM ([4]; per protocol (PP) population): statistically significant response
C/EBPB activation [5]: transient activation
p38 MAP kinase activation [5]: transient activation
C/EBPB activation [6]: transient activation
p38 MAP kinase activation [6]: transient activation
activation of NFKB [7]: does not cause persistent activation
ex vivo MCP-1 response to LPS [8, 36]: increases
ex vivo TNFα response to LPS [8, 36]: decreases
responses of most analytes (58 cytokines and chemokines) to LPS [8, 36]: insignificant changes
ex vivo MCP-3 response to LPS ([8]; dusquetide in vivo vs saline): increases
MCP-1 response to LPS challenge [9]: reduced
TNFα response to LPS challenge [9]: unaffected
MCP-1 response to LPS challenge [10]: reduced
TNFα response to LPS challenge [10]: unaffected
efficacy by regimen ([11]; every 2nd or 3rd day at 25 mg/kg): effective
duration of SOM [11, 37]: decrease
intensity of SOM [11, 37]: decrease
degree of response compared with 3 mg/kg prednisolone of 0.5 mg/kg budesonide [12]: similar
swelling of abraded skin [13]: reduced
ulceration of abraded skin [13]: reduced
survival [14]: survival benefit
survival [15]: survival benefit
cytokine or chemokine levels [16]: no changes
MCP-1 levels ([17]; NHP, transient): modest changes
IL-1ra level ([17]; NHPs): marked but variable increase
levels of most cytokines and chemokines ([17]; NHPs): no substantial changes
IL-1β response to LPS [18, 38]: mild elevations
MIP-la response to LPS [18, 38]: mild elevations
IL-1β response to LPS [18, 39]: decreases
MIP-la response to LPS [18, 39]: decreases
IL-1ra response to LPS ([18]; blood from dusquetide-treated NHP): marked increase
responses of most analytes (47 cytokines and chemokines) to LPS ([18]; primate, dusquetide in vivo before culture): insignificant changes
formulation of oral ulcers ([19]; Kudrimoti 2016, Kudrimoti 2017): suppress
overall infection rate [19]: reduction
overall infection rate ([19]; listed as Dusquetide): decreasing
binding to sequestosome-1 (p62) [20]: bind (but not inhibit); also recorded: binds
p62 interaction with PKCS [21]: no effect
p62 interaction with RIP1 [21]: selectively alters
p62 interaction with TRAF6 [21]: no effect
expression patterns of chemokines such as MCP-1 [22]: modulated
expression patterns of chemokines such as MCP-1 [23]: modulated
expression patterns of chemokines such as MCP-1 [24]: modulated
IL-6 response of macrophage cell line [25]: suppressing
IL-10 response of macrophage cell line [25]: suppressing
TNFα response of macrophage cell line [25]: suppressing
duration of mucositis [26]: decreased
intensity of mucositis [26]: decreased
protection of the lower GI [27]: further protection
bacterial growth [28]: reduced bacterial growth
survival [28]: increased survival
ILIra relative to IL-1B [29]: increasing
TNFRII relative to TNFα [29]: increasing
relation to antibiotic administration ([30]; IV, therapeutic or prophylactic administration): complementary to antibiotic administration
IV dose at which efficacy is consistently seen ([30]; mice, IV): greater than or equal to 5 mg/kg
duration of PD effects of a single dose ([30]; mice, depending on the dose level): up to 5 days
circulating half-life ([30]; mouse, in vivo): short
